These results are taken from patent US20080139449A1 (priority 2005, published 2008).

Test [1] addresses T1, FPPS (Homo sapiens, UniProt P14324). As to conditions: with respect to allylic substrates and IPP; cited from earlier work.
Target sequence in this assay (P14324 whole entry): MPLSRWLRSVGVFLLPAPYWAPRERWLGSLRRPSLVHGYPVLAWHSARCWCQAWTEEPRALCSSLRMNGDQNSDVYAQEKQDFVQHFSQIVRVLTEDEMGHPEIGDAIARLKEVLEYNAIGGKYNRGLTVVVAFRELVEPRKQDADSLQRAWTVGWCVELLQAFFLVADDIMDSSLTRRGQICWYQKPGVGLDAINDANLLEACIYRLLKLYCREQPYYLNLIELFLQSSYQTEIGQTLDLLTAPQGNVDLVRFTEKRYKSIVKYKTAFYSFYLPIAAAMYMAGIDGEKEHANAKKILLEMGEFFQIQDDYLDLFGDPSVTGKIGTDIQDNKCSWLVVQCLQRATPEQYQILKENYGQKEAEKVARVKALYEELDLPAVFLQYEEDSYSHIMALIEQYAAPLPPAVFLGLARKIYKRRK
The target of test [2] is T1, FPPS.
Target sequence in this assay (P14324 72-419): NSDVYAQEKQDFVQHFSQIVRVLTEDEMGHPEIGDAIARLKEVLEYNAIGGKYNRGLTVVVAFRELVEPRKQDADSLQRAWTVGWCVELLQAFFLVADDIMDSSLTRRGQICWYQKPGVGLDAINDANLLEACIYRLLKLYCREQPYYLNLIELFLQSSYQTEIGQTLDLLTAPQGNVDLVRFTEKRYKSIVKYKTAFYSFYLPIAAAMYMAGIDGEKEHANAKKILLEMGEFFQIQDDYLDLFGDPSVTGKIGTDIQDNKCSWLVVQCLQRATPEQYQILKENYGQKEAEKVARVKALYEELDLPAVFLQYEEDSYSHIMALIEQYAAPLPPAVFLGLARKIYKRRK

For `NCCCC(O)(P(=O)(O)O)P(=O)(O)O` [alendronate], the “mode of FPPS inhibition” value on FPPS [1] was “competitive with respect to allylic substrates but not IPP”.

As for `NCCC(O)(P(=O)(O)O)P(=O)(O)O` [pamidronate], the “chemical shift changes in 15N,1H-TROSY spectrum upon ligand addition” value on FPPS [2] (FPPS dimer 60 μM, pamidronate 270 μM, Mg2+ 900 μM) is listed as “almost all of the non-overlapping resonances experience chemical shift changes”.

Regarding `C=C(C)CCOP(=O)(O)OP(=O)(O)O` [IPP, isopentenyl diphosphate], the “binding in the presence of zoledronate/Mg2+ (NMR)” value on FPPS [2] (IPP 400 μM added to FPPS/zoledronate/Mg2+ sample) is reported as “binds to FPPS even in the presence of zoledronate”.
